Experimental data published in PubChem BioAssay (NCI).
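Compound exposure: 48 hours, 5 concentrations, 96-well plates. TGI marks complete inhibition of growth.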

What was measured:
Experiment in all cases: inhibition of tumour cell growth, NCI panel, 48 h
NCI-H226 lung = system: NCI-H226 lung
RPMI-8226 leukemia = system: RPMI-8226 leukemia
MALME-3M melanoma = system: MALME-3M melanoma
HCT-15 colon = system: HCT-15 colon
NCI-H460 lung = system: NCI-H460 lung
HL-60(TB) leukemia = system: HL-60(TB) leukemia
OVCAR-8 ovarian = system: OVCAR-8 ovarian
NCI-H522 lung = system: NCI-H522 lung
HOP-92 NSCLC = system: HOP-92 NSCLC
BT-549 breast = system: BT-549 breast
TK-10 renal = system: TK-10 renal
UACC-62 melanoma = system: UACC-62 melanoma
SF-268 CNS = system: SF-268 CNS
CAKI-1 renal = system: CAKI-1 renal
HS 578T breast = system: HS 578T breast
U251 CNS = system: U251 CNS
M14 melanoma = system: M14 melanoma
HCC-2998 colon = system: HCC-2998 colon
SR leukemia = system: SR leukemia
NCI/ADR-RES ovarian = system: NCI/ADR-RES ovarian
HOP-62 NSCLC = system: HOP-62 NSCLC
A498 renal = system: A498 renal
SK-MEL-5 melanoma = system: SK-MEL-5 melanoma
LOX IMVI melanoma = system: LOX IMVI melanoma
CCRF-CEM leukemia = system: CCRF-CEM leukemia
OVCAR-4 ovarian = system: OVCAR-4 ovarian
KM12 colon = system: KM12 colon
SK-MEL-28 melanoma = system: SK-MEL-28 melanoma
MDA-MB-435 = system: MDA-MB-435
SK-MEL-2 melanoma = system: SK-MEL-2 melanoma
RXF 393 renal = system: RXF 393 renal
DU-145 prostate = system: DU-145 prostate
SN12C renal = system: SN12C renal
OVCAR-3 ovarian = system: OVCAR-3 ovarian
SNB-75 CNS = system: SNB-75 CNS
IGROV1 ovarian = system: IGROV1 ovarian
OVCAR-5 ovarian = system: OVCAR-5 ovarian
MCF7 breast = system: MCF7 breast
UACC-257 melanoma = system: UACC-257 melanoma
ACHN renal = system: ACHN renal
786-0 renal = system: 786-0 renal
HCT-116 colon = system: HCT-116 colon
T-47D breast = system: T-47D breast
MDA-MB-231 breast = system: MDA-MB-231 breast
EKVX NSCLC = system: EKVX NSCLC
COLO 205 colon = system: COLO 205 colon
SW-620 colon = system: SW-620 colon
SK-OV-3 ovarian = system: SK-OV-3 ovarian
K-562 leukemia = system: K-562 leukemia
UO-31 renal = system: UO-31 renal
HT29 colon = system: HT29 colon
NCI-H23 lung = system: NCI-H23 lung
PC-3 prostate = system: PC-3 prostate
A549 NSCLC = system: A549 NSCLC
SF-295 CNS = system: SF-295 CNS
SNB-19 CNS = system: SNB-19 CNS
MDA-N = system: MDA-N
SF-539 CNS = system: SF-539 CNS
MOLT-4 leukemia = system: MOLT-4 leukemia

`CN(C)CCC(C(=O)C(C)(C)C)c1ccccn1` (stereo not given) gave a TGI (NCI-H226 lung) greater than 100 µM, a TGI (RPMI-8226 leukemia) greater than 100 µM and a TGI (MALME-3M melanoma) greater than 100 µM. For the same compound, the TGI (HCT-15 colon) was greater than 100 µM, the TGI (NCI-H460 lung) was greater than 100 µM and the TGI (HL-60(TB) leukemia) was greater than 100 µM. For the same compound, the TGI (OVCAR-8 ovarian) was greater than 100 µM, the TGI (NCI-H522 lung) was greater than 100 µM and the TGI (HOP-92 NSCLC) was greater than 100 µM. For the same compound, the TGI (BT-549 breast) was greater than 100 µM, the TGI (TK-10 renal) was greater than 100 µM and the TGI (UACC-62 melanoma) was greater than 100 µM. It also gave a TGI (SF-268 CNS) greater than 100 µM, a TGI (CAKI-1 renal) greater than 100 µM and a TGI (HS 578T breast) greater than 100 µM. The TGI (U251 CNS) was greater than 100 µM, the TGI (M14 melanoma) was greater than 100 µM and the TGI (HCC-2998 colon) was greater than 100 µM. For the same compound, the TGI (SR leukemia) was greater than 100 µM, the TGI (NCI/ADR-RES ovarian) was greater than 100 µM and the TGI (HOP-62 NSCLC) was greater than 100 µM. The TGI (A498 renal) was greater than 100 µM, the TGI (SK-MEL-5 melanoma) was greater than 100 µM and the TGI (LOX IMVI melanoma) was greater than 100 µM. The TGI (CCRF-CEM leukemia) was greater than 100 µM, the TGI (OVCAR-4 ovarian) was greater than 100 µM and the TGI (KM12 colon) was greater than 100 µM. It also gave a TGI (SK-MEL-28 melanoma) greater than 100 µM, a TGI (MDA-MB-435) greater than 100 µM and a TGI (SK-MEL-2 melanoma) greater than 100 µM. The TGI (RXF 393 renal) was greater than 100 µM, the TGI (DU-145 prostate) was greater than 100 µM and the TGI (SN12C renal) was greater than 100 µM. It also gave a TGI (OVCAR-3 ovarian) of 93.6 µM, a TGI (SNB-75 CNS) greater than 100 µM and a TGI (IGROV1 ovarian) greater than 100 µM. The TGI (OVCAR-5 ovarian) was greater than 100 µM, the TGI (MCF7 breast) was greater than 100 µM and the TGI (UACC-257 melanoma) was greater than 100 µM. The TGI (ACHN renal) was greater than 100 µM, the TGI (786-0 renal) was greater than 100 µM and the TGI (HCT-116 colon) was greater than 100 µM. The TGI (T-47D breast) was greater than 100 µM, the TGI (MDA-MB-231 breast) was greater than 100 µM and the TGI (EKVX NSCLC) was greater than 100 µM. It also gave a TGI (COLO 205 colon) greater than 100 µM, a TGI (SW-620 colon) greater than 100 µM and a TGI (SK-OV-3 ovarian) greater than 100 µM. For the same compound, the TGI (K-562 leukemia) was greater than 100 µM, the TGI (UO-31 renal) was greater than 100 µM and the TGI (HT29 colon) was greater than 100 µM. It also gave a TGI (NCI-H23 lung) greater than 100 µM, a TGI (PC-3 prostate) greater than 100 µM and a TGI (A549 NSCLC) greater than 100 µM. For the same compound, the TGI (SF-295 CNS) was greater than 100 µM, the TGI (SNB-19 CNS) was greater than 100 µM and the TGI (MDA-N) was greater than 100 µM.

`O=C(CCc1cccc(O)c1)NCCc1cccc(OCc2ccccc2)c1` showed a TGI (NCI-H226 lung) of 31.5 µM, a TGI (RPMI-8226 leukemia) greater than 60.1 µM and a TGI (MALME-3M melanoma) of 39.2 µM. It also gave a TGI (HCT-15 colon) of 49.3 µM, a TGI (NCI-H460 lung) of 34.5 µM and a TGI (HL-60(TB) leukemia) greater than 100 µM. For the same compound, the TGI (OVCAR-8 ovarian) was 67.9 µM, the TGI (SF-539 CNS) was 30.7 µM and the TGI (NCI-H522 lung) was 33.4 µM. It also gave a TGI (HOP-92 NSCLC) of 33.8 µM, a TGI (BT-549 breast) of 32.5 µM and a TGI (TK-10 renal) of 55.2 µM. The TGI (UACC-62 melanoma) was 28.4 µM, the TGI (SF-268 CNS) was 43 µM and the TGI (CAKI-1 renal) was greater than 72.2 µM. For the same compound, the TGI (HS 578T breast) was 40.3 µM, the TGI (U251 CNS) was 32 µM and the TGI (M14 melanoma) was 30.2 µM. The TGI (HCC-2998 colon) was 31.7 µM, the TGI (SR leukemia) was greater than 71.6 µM and the TGI (NCI/ADR-RES ovarian) was 41.2 µM. It also gave a TGI (HOP-62 NSCLC) of 30.6 µM, a TGI (A498 renal) greater than 55.2 µM and a TGI (SK-MEL-5 melanoma) of 29.7 µM. For the same compound, the TGI (LOX IMVI melanoma) was 29.8 µM, the TGI (CCRF-CEM leukemia) was 42.4 µM and the TGI (OVCAR-4 ovarian) was 63.6 µM. For the same compound, the TGI (KM12 colon) was 21.3 µM, the TGI (SK-MEL-28 melanoma) was 31.8 µM and the TGI (MDA-MB-435) was 29.6 µM. For the same compound, the TGI (SK-MEL-2 melanoma) was 32.3 µM, the TGI (RXF 393 renal) was 46.4 µM and the TGI (DU-145 prostate) was greater than 80 µM. For the same compound, the TGI (SN12C renal) was 45.1 µM, the TGI (OVCAR-3 ovarian) was 26 µM and the TGI (IGROV1 ovarian) was 25.2 µM. The TGI (OVCAR-5 ovarian) was 57.9 µM, the TGI (MCF7 breast) was 40.4 µM and the TGI (UACC-257 melanoma) was 34.2 µM. It also gave a TGI (ACHN renal) greater than 78.3 µM, a TGI (786-0 renal) of 67.5 µM and a TGI (HCT-116 colon) of 30.3 µM. The TGI (T-47D breast) was 55 µM, the TGI (MDA-MB-231 breast) was 40.7 µM and the TGI (EKVX NSCLC) was 62.2 µM. It also gave a TGI (MOLT-4 leukemia) of 43.5 µM, a TGI (COLO 205 colon) of 38 µM and a TGI (SW-620 colon) greater than 56.5 µM. The TGI (SK-OV-3 ovarian) was 53.5 µM, the TGI (K-562 leukemia) was 71.3 µM and the TGI (UO-31 renal) was 33.4 µM. The TGI (HT29 colon) was 30.7 µM, the TGI (NCI-H23 lung) was 45.2 µM and the TGI (PC-3 prostate) was 31.8 µM. The TGI (A549 NSCLC) was greater than 70.9 µM, the TGI (SF-295 CNS) was 32.9 µM and the TGI (SNB-19 CNS) was 63.7 µM. The TGI (MDA-N) was 39 µM.
